# Assay results from patent US10335382B2, “Use of hydrogen sulfide synthesis inhibitors for cancer therapy” (THE BOARD OF REGENTS OF THE UNIVERSITY OF TEXAS SYSTEM, priority 2013, dated 2019).
# Molecular target: T1, CBS (Homo sapiens, UniProt P35520)
# T1 sequence (P35520 1-551): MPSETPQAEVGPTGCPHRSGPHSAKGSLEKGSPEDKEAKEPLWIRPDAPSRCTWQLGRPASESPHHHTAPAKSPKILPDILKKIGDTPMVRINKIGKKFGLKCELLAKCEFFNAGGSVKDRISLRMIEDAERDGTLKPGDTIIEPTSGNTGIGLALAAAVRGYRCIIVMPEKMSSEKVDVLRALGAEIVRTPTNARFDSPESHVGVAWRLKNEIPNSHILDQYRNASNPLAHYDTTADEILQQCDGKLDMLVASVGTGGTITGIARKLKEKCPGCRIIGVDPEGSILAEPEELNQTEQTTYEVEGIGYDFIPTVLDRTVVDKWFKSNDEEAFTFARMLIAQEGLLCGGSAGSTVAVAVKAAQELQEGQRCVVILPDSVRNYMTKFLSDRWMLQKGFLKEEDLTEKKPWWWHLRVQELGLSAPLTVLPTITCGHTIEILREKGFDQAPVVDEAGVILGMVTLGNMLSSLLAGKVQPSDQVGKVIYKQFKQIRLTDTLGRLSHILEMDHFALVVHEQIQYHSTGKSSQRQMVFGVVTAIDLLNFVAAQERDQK
# Experiment: CBS inhibitor screen: H2S production by recombinant CBS (methylene blue assay)
# Type: biochemical
# Design: These studies used full-length human CBS enzyme; made in house; host or cells: E. coli BL21 (DE3) Codon Plus
# Conditions: 100 μM; homocysteine-induced H2S production; LOPAC library screen; read-out: Inhibition of CBS activity at 100 μM
# Source text: Studies have been performed characterizing, in detail, the specificity and selectivity of all known H2S biosynthesis inhibitors, using recombinant CBS and CSE enzymes. These studies used full-length human CBS enzyme, and a colorimetric ‘capture’ reaction of the H2S produced by these enzymes, an assay generally known as the ‘methylene blue assay’. This assay is used in a 96-well plate format, as well as in combination with a second screening method based on a fluorescent dye.
# Human recombinant CBS is expressed as described (Asimakopoulou et al, (2013) Br J Pharmacol. 169(4):922-32). A library of pharmacologically active compounds (e.g., LOPAC library, Sigma; 1240 compounds) is tested on homocysteine-induced H2S production. In certain aspects the assay is in a 96-well format. In certain aspects H2S production is measured by the methylene blue assay (Asimakopoulou et al., (2013) Br J Pharmacol. 169(4):922-32).
# Plasmids, bacterial strains and media. E. coli BL21 (DE3) Codon Plus is used as a host strain to express recombinant human CSE or CBS. CSE cDNA was cloned into pGEX-4T3 and CBS into pGEX-Kg to create N-terminal GSH-S-transferase (GST) fusion proteins. The expression vectors were transformed and plated on LB-agar plates, supplemented with ampicillin (100 μg/mL).
# The expression and purification of CSE and CBS is performed as described previously with modifications (Frank et al., (2008) Arch Biochem Biophys 470:64-72; Huang et al., (2009) J Mol Biol 396: 708-18). Briefly, BL21(DE3) Codon Plus cells containing either the expression vector pGEX-4T3/GST-CSE or pGEX-Kg/GST-CBS are grown at 37° C. and 180 r.p.m. in LB broth medium containing 100 μg/mL ampicillin to an absorption of 0.6-0.8 at 600 nm. In addition, 0.3 mM d-ALA is added to the culture containing pGEX-Kg/GST-CBS. Then protein expression is induced by addition of 0.1 mM IPTG. Cells containing pGEX-4T-3/GST-CSE are incubated overnight at 18° C., whereas cells containing pGEXKg/GST-CBS are incubated overnight at 30° C. Culture is then centrifuged at 4° C. and 5000×g for 10 min and the cell pellet was resuspended in PBS (140 mM NaCl, 2.7 mM KCl, 10 mM Na2HPO4, 1.8 mM KH2PO4, pH 7.8) and stored at −20° C. overnight. After thawing, the suspension is sonicated in lysis buffer containing PBS and protease inhibitor cocktail for GST-CSE and PBS, 5 mM DTT, 1% Triton X-100, […] and protease inhibitor cocktail for GST-CBS. After centrifugation at 4° C. for 30 min, the soluble fraction containing either the GST-CSE or the GST-CBS recombinant protein is loaded onto a GSTrap FF 1 mL affinity column that has been equilibrated with binding buffer PBS. The column was consecutively washed with five column volumes of binding buffer. Proteins attached to the column, including GST-CSE or GST-CBS recombinant proteins, are eluted with five column volumes of elution buffer (50 mM Tris-HCl, 10 mM reduced GSH, pH 8.0) and then dialysed and concentrated in 10 mM sodium phosphate buffer pH 8.2 and DTT 1 mM. The purity of the recombinant enzymes was checked by SDS-PAGE on 12% polyacrylamide gels after staining of protein bands with Coomassie Blue R-250. Protein concentration was determined using the DC protein assay kit.
# H2S determination is performed according to Stipanuk and Beck ((1982) Biochem J 206:267-77) with some modifications. In the case of the CSE enzyme, an assay consist of a 100 μL reaction mixture containing 5 μg of the purified CSE enzyme, 0.01 mM PLP, 1 mM L-cys, and 50 mM sodium phosphate buffer pH 8.2. For the CBS enzyme, the reaction mixture contains the same as for the CSE plus 1 mM homocysteine. The inhibitors can be added to the reaction before L-cys is added to the solution. Reactions are initiated by transferring the reaction solutions from ice to a 37° C. shaking water bath. After incubation at 37° C. the reaction is terminated by adding 1% ZnAc to trap H2S followed by 10% TCA to precipitate proteins. […]
smiles,measurement,value
"NOCC(=O)O [AOAA, aminooxyacetic acid]",inhibition at 100 µM,98%
